According to US12655116B2, “Substituted isophthalic acid diamides” (Bayer Aktiengesellschaft, priority 2020, dated 2026):

Legend:
[1] = system: ABUTH; experiment: Pre-emergence herbicidal action against ABUTH; type: in vivo, Abutilon theophrasti; conditions: for Pre-emergence action against ABUTH (herbicidal activity) / pest or weed control at 80 g/ha: 80 g/ha, scored visually after 3 weeks vs untreated controls (100% = plants have died, 0% = like control plants); for Pre-emergence action against ABUTH (herbicidal activity in percent): dosage 20 g/ha, scored visually after 3 weeks vs untreated controls, 100% = plants have died, 0% = like control plants; for pest or weed control at 80 g/ha: Abutilon theophrasti, 504 h
How it was run: (§1)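 Herbicidal effect was assessed 3 weeks after treatment by visual comparison with untreated controls, 100% denoting dead plants. Aqueous WP or EC preparations had been applied at 600 to 800 l/ha with 0.2% wetting agent to the soil covering freshly sown seeds.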

[2] = system: ALOMY; experiment: Pre-emergence herbicidal action against ALOMY; type: in vivo, Alopecurus myosuroides; conditions: 80 g/ha, pre-emergence, scored visually after 3 weeks vs untreated controls (100% = plants have died, 0% = like control plants)
Text: (§2) Seeds of monocotyledonous and dicotyledonous weed plants and crop plants are laid out in sandy loam soil in wood-fiber pots and covered with soil. The compounds of the invention, formulated in the form of wettable powders (WP) or as emulsion concentrates (EC), are then applied to the surface of the covering soil in the form of an aqueous suspension or emulsion at a water application rate equivalent to 600 to 800 l/ha, with addition of 0.2% wetting agent. After the treatment, the pots are placed in a greenhouse and kept under good growth conditions for the trial plants. The damage to the test plants is scored visually after a test period of 3 weeks by comparison with untreated controls (herbicidal activity in percent (%): 100% activity=the plants have died, 0% activity=like control plants). […] The tables below illustrate, in an illustrative manner, the post-emergence herbicidal action of the compounds of the invention, the herbicidal activity being stated in percent.

[3] = system: AMARE; experiment: Pre-emergence herbicidal action against AMARE; type: in vivo, Amaranthus retroflexus; conditions: for pest or weed control at 20 g/ha / pest or weed control at 80 g/ha: Amaranthus retroflexus, 504 h
How it was run: as §1

[4] = system: ECHCG; experiment: Pre-emergence herbicidal action against ECHCG; type: in vivo, Echinochloa crus-galli; conditions: 80 g/ha
How it was run: as §1

[5] = system: MATIN; experiment: Pre-emergence herbicidal action against MATIN; type: in vivo, Matricaria inodora; conditions: for pest or weed control at 80 g/ha: Tripleurospermum inodorum, 504 h
How it was run: as §1

[6] = system: SETVI; experiment: Pre-emergence herbicidal action against SETVI; type: in vivo, Setaria viridis; conditions: dosage 80 g/ha
How it was run: as §1

[7] = system: VERPE; experiment: Pre-emergence herbicidal action against VERPE; type: in vivo, Veronica persica; conditions: dosage 80 g/ha; for pest or weed control at 80 g/ha: Veronica persica, 504 h
Text: as §2

[8] = system: DIGSA; experiment: Pre-emergence herbicidal action against DIGSA; type: in vivo, Digitaria sanguinalis
How it was run: as §1

[9] = system: ABUTH; experiment: Post-emergence herbicidal action against ABUTH; type: in vivo, Abutilon theophrasti; conditions: visual assessment about 3 weeks after treatment vs untreated controls
How it was run: (§3)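 Herbicidal effect was scored visually in percent after about 3 weeks in the greenhouse. Plants had been raised in sandy loam and treated post-emergence at the one-leaf stage with formulated compound at 600 to 800 l/ha water plus 0.2% wetting agent.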

[10] = system: AMARE; experiment: Post-emergence herbicidal action against AMARE; type: in vivo, Amaranthus retroflexus; conditions: 20 g/ha, visual assessment about 3 weeks after treatment, 100% = plants have died, 0% = like control plants; for pest or weed control at 20 g/ha: Amaranthus retroflexus, 504 h
How it was run: as §3

[11] = system: ECHCG; experiment: Post-emergence herbicidal action against ECHCG; type: in vivo, Echinochloa crus-galli; conditions: for pest or weed control at 20 g/ha: Echinochloa crus-galli, 504 h
How it was run: as §3

[12] = system: MATIN; experiment: Post-emergence herbicidal action against MATIN; type: in vivo, Matricaria inodora; conditions: dosage 20 g/ha
Procedure: (§4) Seeds of monocotyledonous and dicotyledonous weed and crop plants are laid out in sandy loam soil in wood-fiber pots, covered with soil and cultivated in a greenhouse under good growth conditions. 2 to 3 weeks after sowing, the test plants are treated at the one-leaf stage. The compounds of the invention, formulated in the form of wettable powders (WP) or as emulsion concentrates (EC), are then sprayed onto the green parts of the plants in the form of an aqueous suspension or emulsion at a water application rate equivalent to 600 to 800 l/ha, with addition of 0.2% wetting agent. After the test plants have been left to stand in the greenhouse under optimal growth conditions for about 3 weeks, the action of the preparations is assessed visually in comparison to untreated controls (herbicidal action in percent (%): 100% activity=the plants have died, 0% activity=like control plants). […] The tables below illustrate, in an illustrative manner, the post-emergence herbicidal action of the compounds of the invention, the herbicidal activity being stated in percent.

[13] = system: PHBPU; experiment: Post-emergence herbicidal action against PHBPU; type: in vivo, Pharbitis purpurea; conditions: dosage 20 g/ha
Procedure: as §4

[14] = system: DIGSA; experiment: Post-emergence herbicidal action against DIGSA; type: in vivo, Digitaria sanguinalis
Procedure: as §4

[15] = system: AVEFA; experiment: Pre-emergence herbicidal action against AVEFA; type: in vivo, Avena fatua; conditions: 80 g/ha, pre-emergence
Text: as §2

[16] = system: VIOTR; experiment: Pre-emergence herbicidal action against VIOTR; type: in vivo, Viola tricolor; conditions: dosage 80 g/ha; for pest or weed control at 80 g/ha: Viola tricolor, 504 h
How it was run: as §1

[17] = system: SETVI; experiment: Post-emergence herbicidal action against SETVI; type: in vivo, Setaria viridis; conditions: for pest or weed control at 20 g/ha: Setaria viridis, 504 h
How it was run: as §3

[18] = system: ALOMY; experiment: Post-emergence herbicidal action against ALOMY; type: in vivo, Alopecurus myosuroides; conditions: dosage 20 g/ha, visual assessment about 3 weeks after treatment vs untreated controls
Procedure: as §4

[19] = 20 g/ha, scored visually after 3 weeks vs untreated controls, 100% = plants have died, 0% = like control plants
[20] = 80 g/ha, scored visually after 3 weeks vs untreated controls (100% = plants have died, 0% = like control plants)
[21] = 80 g/ha, scored visually after 3 weeks vs untreated controls, 100% = plants have died, 0% = like control plants

Cc1nnc(NC(=O)c2ccc(C(F)F)c(C(=O)NC(C)C)c2Cl)o1 [Example 6-260]
Pre-emergence action against ABUTH (herbicidal activity) [1]: 100%
Pre-emergence action against ABUTH (herbicidal activity in percent) [1]: 90%
Pre-emergence action against ALOMY (herbicidal activity) [2]: 90%
Pre-emergence action against AMARE in % [3, 19]: 100%
Pre-emergence action against AMARE in % [3, 20]: 100%
Pre-emergence action against ECHCG in % [4]: 100%
Pre-emergence action against MATIN in % ([5]; dosage 20 g/ha): 100%
Pre-emergence action against MATIN in % ([5]; dosage 80 g/ha): 100%
Pre-emergence action against SETVI in % [6]: 100%
Pre-emergence action against VERPE in % [7]: 90%
Pre-emergence action against DIGSA in % ([8]; dosage 20 g/ha): 100%
Pre-emergence action against DIGSA in % ([8]; dosage 80 g/ha): 100%
Post-emergence action against ABUTH in % ([9]; dosage 20 g/ha): 90%
Post-emergence action at 20 g/ha against AMARE in % [10]: 80%
Post-emergence action against ECHCG in % ([11]; dosage 5 g/ha): 90%
Post-emergence action against ECHCG in % ([11]; dosage 20 g/ha): 90%
Post-emergence action against MATIN in % [12]: 80%
Post-emergence action against PHBPU in % [13]: 90%
Post-emergence action against DIGSA in % ([14]; 5 g/ha): 90%
Post-emergence action against DIGSA ([14]; 20 g/ha): 90%

CCNC(=O)c1c(Cl)ccc(C(=O)Nc2nnnn2C)c1Br [Example 1-350]
pest or weed control at 80 g/ha [1]: 100%
pest or weed control at 80 g/ha ([2]; Alopecurus myosuroides, 504 h): 100%
pest or weed control at 20 g/ha [3, 19]: 100%
pest or weed control at 80 g/ha [3, 21]: 100%
pest or weed control at 80 g/ha ([15]; Avena fatua, 504 h): 90%
pest or weed control at 80 g/ha ([4]; Echinochloa crus-galli, 504 h): 100%
pest or weed control at 80 g/ha ([5]; dosage 80 g/ha): 90%
pest or weed control at 80 g/ha ([6]; Setaria viridis, 504 h): 100%
pest or weed control at 80 g/ha [7]: 80%
pest or weed control at 80 g/ha [16]: 100%
pest or weed control at 20 g/ha [10]: 100%
pest or weed control at 20 g/ha ([11]; dosage 20 g/ha): 80%
pest or weed control at 20 g/ha ([17]; dosage 20 g/ha): 80%

CCn1nnnc1NC(=O)c1ccc(C(F)(F)F)c(C(=O)NCC(=O)N(C)C)c1Cl [Example 2-142]
Pre-emergence action against AMARE in % [3, 20]: 100%
Pre-emergence action against MATIN in % ([5]; dosage 20 g/ha): 80%
Pre-emergence action against MATIN in % ([5]; dosage 80 g/ha): 100%
Pre-emergence action against VIOTR in % [16]: 100%
Post-emergence action against ALOMY in % [18]: 80%
Post-emergence action at 20 g/ha against AMARE in % [10]: 100%

CCn1nnnc1NC(=O)c1ccc(C(F)F)c(C(=O)NCC(F)(F)F)c1Br [Example 2-229]
Pre-emergence action against ABUTH (herbicidal activity) [1]: 100%
Pre-emergence action against ABUTH (herbicidal activity in percent) [1]: 80%
Pre-emergence action against ALOMY (herbicidal activity) [2]: 90%
Pre-emergence action against AMARE in % [3, 19]: 100%
Pre-emergence action against AMARE in % [3, 20]: 100%
Pre-emergence action against AVEFA in % [15]: 90%
Pre-emergence action against ECHCG in % [4]: 80%
Pre-emergence action against MATIN in % ([5]; dosage 20 g/ha): 100%
Pre-emergence action against MATIN in % ([5]; dosage 80 g/ha): 100%
Pre-emergence action against SETVI in % [6]: 100%
Pre-emergence action against VERPE in % [7]: 80%
Pre-emergence action against VIOTR in % [16]: 100%
Pre-emergence action against DIGSA in % ([8]; dosage 80 g/ha): 100%
Post-emergence action against ABUTH in % ([9]; dosage 20 g/ha): 80%
Post-emergence action at 20 g/ha against AMARE in % [10]: 90%
Post-emergence action against ECHCG in % ([11]; dosage 20 g/ha): 90%
Post-emergence action against MATIN in % [12]: 80%
Post-emergence action against PHBPU in % [13]: 90%
Post-emergence action against SETVI in % ([17]; dosage 20 g/ha): 80%

Cc1nnc(NC(=O)c2ccc(Br)c(C(=O)NCC(F)F)c2Cl)o1 [Example 6-145]
Pre-emergence action against ABUTH (herbicidal activity) [1]: 100%
Pre-emergence action against ABUTH (herbicidal activity in percent) [1]: 100%
Pre-emergence action against ALOMY (herbicidal activity) [2]: 90%
Pre-emergence action against AMARE in % [3, 19]: 90%
Pre-emergence action against AMARE in % [3, 20]: 100%
Pre-emergence action against ECHCG in % [4]: 90%
Pre-emergence action against SETVI in % [6]: 100%
Pre-emergence action against DIGSA in % ([8]; dosage 20 g/ha): 90%
Pre-emergence action against DIGSA in % ([8]; dosage 80 g/ha): 100%
Post-emergence action against ALOMY in % [18]: 80%
Post-emergence action against PHBPU in % [13]: 80%
Post-emergence action against SETVI in % ([17]; dosage 5 g/ha): 80%
Post-emergence action against SETVI in % ([17]; dosage 20 g/ha): 90%

CN(C)C(=O)CNC(=O)c1c(C(F)(F)F)ccc(C(=O)Nc2nnnn2C)c1Cl [Example 1-142]
Pre-emergence action against AMARE in % [3, 20]: 100%
Pre-emergence action against MATIN in % ([5]; dosage 80 g/ha): 90%
Pre-emergence action against VIOTR in % [16]: 90%
Post-emergence action against ALOMY in % [18]: 90%
Post-emergence action at 20 g/ha against AMARE in % [10]: 90%

Cc1c(C(=O)Nc2nnnn2C)ccc(C(F)(F)F)c1C(=O)NC1COC1 [Example 1-41]
pest or weed control at 80 g/ha [1]: 100%
pest or weed control at 20 g/ha [3, 19]: 90%
pest or weed control at 80 g/ha [3, 21]: 100%
pest or weed control at 80 g/ha ([5]; dosage 80 g/ha): 100%
pest or weed control at 80 g/ha [7]: 90%
pest or weed control at 80 g/ha [16]: 100%
pest or weed control at 80 g/ha ([8]; Digitaria sanguinalis, 504 h, dosage 80 g/ha): 100%
pest or weed control at 5 g/ha ([9]; Abutilon theophrasti, 504 h, dosage 5 g/ha): 80%
pest or weed control at 20 g/ha ([9]; Abutilon theophrasti, 504 h, dosage 20 g/ha): 80%
pest or weed control at 20 g/ha [10]: 90%
pest or weed control at 20 g/ha ([11]; dosage 20 g/ha): 90%
pest or weed control at 20 g/ha ([17]; dosage 20 g/ha): 80%
pest or weed control at 5 g/ha ([14]; Digitaria sanguinalis, 504 h, 5 g/ha): 80%
pest or weed control at 20 g/ha ([14]; Digitaria sanguinalis, 504 h, 20 g/ha): 90%
